{"source": "patent US20250387324A1", "about": "“IN SITU FORMING IMPLANTS AND MICROPARTICLES FOR INTRAARTICULAR DRUG DELIVERY” (Mississippi State University, priority 2024, published 2025)", "key": {"[1]": {"tested_on": "IL-1β production by human THP-1 macrophages", "assay": "LPS-stimulated IL-1β production by THP-1 macrophages (ELISA)", "format": "cell-based", "from_the_text": "(§1) In addition to the inhibition of released collagenases, PCG is capable of suppressing the biosynthesis of inflammatory mediators that play important roles in the pathogenesis of OA. Such chondroprotective properties were investigated using THP-1 monocytes that had been differentiated into macrophages. THP-1 is a human leukemia monocytic cell line. THP-1 monocytes were expanded by suspension culture in RPMI 1640 medium supplemented with 10% FBS and 1% antibiotic-antimycotic solution. They were differentiated into macrophages by adding PMA to a final concentration of 20 nM and transferring them to monolayer culture for 72 h.^13 Inflammation was then induced by treatment with 1 μg/ml LPS. PCG was first dissolved at 5 mM in complete culture medium. One hour after LPS stimulation, cells were treated with PCG at final concentrations of 4, 20, 100, and 500 μM. Culture supernatant was collected 24 h later and IL-1β quantified using ELISA, with results expressed as a percentage of the unstimulated control."}, "[2]": {"tested_on": "prostaglandin E2 (PGE2) production by human THP-1 macrophages", "assay": "LPS-stimulated PGE2 production by THP-1 macrophages (LC-MS/MS)", "format": "cell-based", "from_the_text": "as §1\nIn addition to IL-1β, prostaglandin E2 (PGE2) in the culture supernatants was quantified using mass spectrometry. […] The residues were then reconstituted in 100 μL of methanol and analyzed by liquid chromatography with tandem mass spectrometry (LC-MS/MS), as previously described.^13"}, "[3]": {"tested_on": "type 2 collagenase", "assay": "Inhibition of collagenase-mediated cartilage degradation (pig cartilage disks, residual mass)", "format": "biochemical", "experimental": "The stability of PCG within a PLGA implant was examined by determining the ability of released PCG to inhibit collagenase-mediated cartilage degradation. Pig stifle (knee) joints were obtained from a local meat processor and full-thickness, cylindrical disks of articular cartilage (5 mm diameter) were harvested from the distal femurs. The disks were freeze-dried, weighed, and placed in Dulbecco's Modified Eagle Medium (DMEM) containing 0.0025% type 2 collagenase with and without 100 μM PCG (n=12 disks per group). Samples were incubated at 37° C. under gentle orbital shaking. At 3, 6, 9, and 12 days of incubation, three disks from each group were rinsed in distilled water, freeze-dried and weighed again, while the rest were allowed to continue incubation after adding fresh collagenase. The same experiment was repeated using implants made with 20% PLGA (50:50), NMP/BB 90/10, and 0 or 32 mg PCG per gram total implant weight (n=12 per group). Implants were formed in microcentrifuge tubes by pipetting 100 μl of the solution into distilled water. One hour later the water was replaced by the collagenase solution. Custom 3D-printed baskets were used to suspend the cartilage disks in the collagenase just above the implants. Disks were collected and weighed at the same 3-day intervals, with replacement of the collagenase solution each time. PCG concentration in the spent collagenase solution was determined by measuring absorbance at 373 nm and comparing to a standard curve generated from serial dilutions of PCG dissolved directly into DMEM. For both experiments, data are reported as residual mass of cartilage (final weight/initial weight). The overall effect of PCG was analyzed by two-way ANOVA with treatment and time as factors. Statistically significant effects of PCG at each time point were determined by independent t-test (equal variances not assumed)."}, "[4]": {"assay": "Solvent screening for dissolving PCG", "format": "physicochemical", "experimental": "The present inventor has developed a suitable in situ forming implant for sustained delivery of PCG. Polycarbonate, poly(lactic acid), and poly(lactide-co-glycolide) (PLGA) were dissolved in various solvents and screened for combinations that could also dissolve punicalagin and release it gradually from an implant formed in situ. PLGA emerged as the polymer that offered the best opportunity for the tuning of PCG release kinetics. Systems composed of PLGA and PCG dissolved in N-methyl-2-pyrrolidone (NMP) and/or benzyl alcohol (BA) consistently formed solid or hydrogel implants. […] Thus, one aspect of this invention is the characterization of PLGA in situ forming implants (originating from solutions containing NMP, BA, and BB) with respect to PCG stability and release kinetics."}, "[5]": {"tested_on": "adjuvant-induced arthritis", "settings": "daily intraperitoneal doses, 50 mg/kg; cited from earlier work"}, "[6]": {"tested_on": "monoiodoacetate-induced model of OA", "settings": "cited from earlier work"}, "[7]": {"settings": "6% w/w PCG-containing diet for 37 days; cited from earlier work"}, "[8]": {"tested_on": "fibroblast synoviocytes", "settings": "cited from earlier work"}, "[9]": {"tested_on": "murine monocyte/macrophage-like cells", "settings": "dose-dependent; cited from earlier work"}, "[10]": {"tested_on": "RAW264.7 murine macrophages", "settings": "cited from earlier work"}, "[11]": {"molecular_target": "collagen type II (Homo sapiens, UniProt P02458)", "sequence (P02458 182-1241 limits assumed)": "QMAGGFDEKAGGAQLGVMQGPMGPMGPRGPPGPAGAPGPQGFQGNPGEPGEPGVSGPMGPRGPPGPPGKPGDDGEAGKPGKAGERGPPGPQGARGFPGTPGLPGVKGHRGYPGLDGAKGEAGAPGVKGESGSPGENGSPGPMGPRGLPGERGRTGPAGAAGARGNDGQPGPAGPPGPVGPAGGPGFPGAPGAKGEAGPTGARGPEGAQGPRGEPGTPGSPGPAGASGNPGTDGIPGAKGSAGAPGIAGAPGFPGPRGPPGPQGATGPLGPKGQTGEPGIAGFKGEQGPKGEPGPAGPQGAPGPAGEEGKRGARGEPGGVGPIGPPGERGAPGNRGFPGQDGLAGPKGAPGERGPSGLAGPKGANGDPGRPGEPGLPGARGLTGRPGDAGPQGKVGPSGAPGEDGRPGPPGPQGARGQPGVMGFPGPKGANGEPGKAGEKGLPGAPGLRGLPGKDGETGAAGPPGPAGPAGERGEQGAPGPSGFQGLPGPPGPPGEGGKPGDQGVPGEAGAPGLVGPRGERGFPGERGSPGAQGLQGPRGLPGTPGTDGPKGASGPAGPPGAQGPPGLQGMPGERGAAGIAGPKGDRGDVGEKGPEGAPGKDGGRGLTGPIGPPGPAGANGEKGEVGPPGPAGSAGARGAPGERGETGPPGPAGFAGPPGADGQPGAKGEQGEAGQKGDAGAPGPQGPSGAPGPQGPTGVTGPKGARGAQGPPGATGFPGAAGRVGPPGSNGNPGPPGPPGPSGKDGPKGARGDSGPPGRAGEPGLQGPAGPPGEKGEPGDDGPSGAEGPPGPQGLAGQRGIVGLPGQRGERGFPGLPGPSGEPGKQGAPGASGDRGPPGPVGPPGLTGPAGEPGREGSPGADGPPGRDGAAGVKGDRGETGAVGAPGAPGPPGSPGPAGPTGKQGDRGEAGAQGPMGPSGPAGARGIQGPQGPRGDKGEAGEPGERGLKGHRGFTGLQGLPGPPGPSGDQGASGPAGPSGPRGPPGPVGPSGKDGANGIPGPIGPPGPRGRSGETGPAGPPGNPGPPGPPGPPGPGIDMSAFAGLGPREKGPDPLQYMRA", "settings": "non-covalent; cited from earlier work"}, "[12]": {"tested_on": "collagenase", "settings": "in vitro; cited from earlier work"}}}
{"molecule": "O=C1O[C@H]2[C@@H]3OC(=O)c4cc(O)c(O)c(O)c4-c4c(O)c(O)c5oc(=O)c6c(c(O)c(O)c7oc(=O)c4c5c76)-c4c(cc(O)c(O)c4O)C(=O)OC[C@H]3OC(O)[C@@H]2OC(=O)c2cc(O)c(O)c(O)c2-c2c1cc(O)c(O)c2O", "note": "(mixture of isomers) [PCG, punicalagin]", "values": [{"measurement": "LPS-stimulated IL-1β production", "setting": "[1]; PCG 4 μM, added 1 h after 1 μg/ml LPS, supernatant at 24 h", "value": "return to the unstimulated control level"}, {"measurement": "LPS-stimulated IL-1β production", "setting": "[1]; PCG 20 μM and above", "value": "suppression of practically all IL-1β synthesis"}, {"measurement": "attenuation of LPS-stimulated production of PGE2", "setting": "[2]; PCG 500 μM", "value": "approximately 85%"}, {"measurement": "decrease in PGE2 production", "setting": "[2]; PCG in the range of 4-100 μM", "value": "about 35%"}, {"measurement": "cartilage mass loss", "setting": "[3]; 100 μM PCG added directly, 12 days, 0.0025% type 2 collagenase", "value": "about 55%"}, {"measurement": "collagenase-mediated degradation of cartilage", "setting": "[3]; added directly to collagenase solution or released from an ISI", "value": "significantly inhibited"}, {"measurement": "stability of PCG within PLGA ISI", "setting": "[3]; judged by collagenase inhibition of released PCG", "value": "at least 12 days"}, {"measurement": "solubility of PCG in benzyl benzoate (BB)", "setting": "[4]", "value": "did not dissolve"}, {"measurement": "paw edema", "setting": "[5]", "value": "significantly reduced paw edema"}, {"measurement": "systemic toxicity (histology of major organs)", "setting": "[6]; intraarticular PCG study", "value": "no evidence of systemic toxicity"}, {"measurement": "erosion of cartilage compared to saline control", "setting": "[6]; semi-weekly intraarticular injections, 9.2 mM PCG solution", "value": "less overall erosion of cartilage"}, {"measurement": "systemic toxicity", "setting": "[7]", "value": "no systemic toxicity"}, {"measurement": "TNF-α induced expression of IL-1β", "setting": "[8]", "value": "reduce"}, {"measurement": "TNF-α induced expression of IL-6", "setting": "[8]", "value": "reduce"}, {"measurement": "TNF-α induced expression of MMP-13", "setting": "[8]", "value": "reduce"}, {"measurement": "lipopolysaccharide-stimulated production of IL-6", "setting": "[9]", "value": "suppressed"}, {"measurement": "lipopolysaccharide-stimulated production of nitric oxide (NO)", "setting": "[9]", "value": "suppressed"}, {"measurement": "lipopolysaccharide-stimulated production of prostaglandin E2 (PGE2)", "setting": "[9]", "value": "suppressed"}, {"measurement": "LPS-induced production of IL-1β", "setting": "[10]", "value": "attenuated"}, {"measurement": "LPS-induced production of PGE2", "setting": "[10]", "value": "attenuated"}, {"measurement": "binding to collagen type II", "setting": "[11]", "value": "high affinity"}, {"measurement": "collagenase enzymatic activity", "setting": "[12]", "value": "inhibit its enzymatic activity"}]}
